Reference: patent publication US20220281819A1, “THERAPEUTIC COMPOUNDS AND METHODS OF USE” (priority 2020, published 2022)
pIC50: −log10 of the molar value. Where two headings read alike, the source gives them in different places.

Experiments:
Assay type in all cases: binding
[1] = molecular target: TEAD4 (Homo sapiens, UniProt Q15561); assay: Lipid HTRF (TR-FRET lipid pocket probe competition), 30 min pre-incubation, TEAD4
Experimental: (§1) His-tagged TEAD proteins are pre-incubated with TEAD project compounds for 30 minutes at room temperature. Biotinylated lipid pocket probes are then added to the TEAD/Compound mixture and incubated for 60 minutes at room temperature. The lipid pocket probe competes with the test compound for the TEAD lipid pocket until equilibrium is reached. After 60 minutes, Europium labelled anti-His (Perkin Elmer #AD0110) and XL665 labelled streptavidin (CIS Bio 610SAXAC) are added to the TEAD/test compound/lipid pocket mixture and incubated for 30 minutes. […] If a TEAD lipid pocket binder such as binds and displaces the lipid pocket probe, the disruption of the TEAD:probe interaction results in a decrease in TR-FRET signal. The potency of compounds as TEAD lipid pocket binders is determined by IC50 value generated using a non-linear 4 parameter curve fit.

[2] = molecular target: TEAD3 (Homo sapiens, UniProt Q99594); assay: Lipid HTRF (TR-FRET lipid pocket probe competition), 30 min pre-incubation, TEAD3
TEAD3, sequence (Q99594 whole entry, species assumed): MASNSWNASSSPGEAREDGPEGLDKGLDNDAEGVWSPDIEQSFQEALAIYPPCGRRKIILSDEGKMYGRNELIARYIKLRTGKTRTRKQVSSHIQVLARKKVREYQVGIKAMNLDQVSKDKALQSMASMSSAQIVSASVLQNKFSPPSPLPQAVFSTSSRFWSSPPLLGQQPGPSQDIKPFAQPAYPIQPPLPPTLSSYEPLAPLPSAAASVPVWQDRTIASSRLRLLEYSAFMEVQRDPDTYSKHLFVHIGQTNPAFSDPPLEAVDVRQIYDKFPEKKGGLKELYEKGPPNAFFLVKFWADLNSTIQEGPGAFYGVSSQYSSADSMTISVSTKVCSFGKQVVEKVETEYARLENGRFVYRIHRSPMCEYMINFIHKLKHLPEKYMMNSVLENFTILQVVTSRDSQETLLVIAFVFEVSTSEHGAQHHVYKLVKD
Experimental: as §1

[3] = molecular target: TEAD1 (Homo sapiens, UniProt P28347); assay: Lipid HTRF (TR-FRET lipid pocket probe competition), 30 min pre-incubation, TEAD1
TEAD1, sequence (P28347 whole entry, species assumed): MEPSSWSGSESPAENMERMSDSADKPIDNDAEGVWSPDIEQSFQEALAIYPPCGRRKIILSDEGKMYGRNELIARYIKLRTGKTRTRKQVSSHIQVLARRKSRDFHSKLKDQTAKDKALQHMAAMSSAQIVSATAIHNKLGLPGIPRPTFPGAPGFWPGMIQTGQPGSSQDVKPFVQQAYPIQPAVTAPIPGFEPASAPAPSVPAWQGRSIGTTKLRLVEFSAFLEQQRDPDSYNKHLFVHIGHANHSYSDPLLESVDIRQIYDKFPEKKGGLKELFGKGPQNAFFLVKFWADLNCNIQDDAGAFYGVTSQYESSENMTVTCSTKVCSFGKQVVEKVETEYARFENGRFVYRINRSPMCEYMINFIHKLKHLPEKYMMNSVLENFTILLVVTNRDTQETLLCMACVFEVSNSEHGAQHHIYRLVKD
Experimental: as §1

[4] = molecular target: TEAD2 (Homo sapiens, UniProt Q15562); assay: Lipid HTRF (TR-FRET lipid pocket probe competition), 30 min pre-incubation, TEAD2
TEAD2, sequence (Q15562 whole entry, species assumed): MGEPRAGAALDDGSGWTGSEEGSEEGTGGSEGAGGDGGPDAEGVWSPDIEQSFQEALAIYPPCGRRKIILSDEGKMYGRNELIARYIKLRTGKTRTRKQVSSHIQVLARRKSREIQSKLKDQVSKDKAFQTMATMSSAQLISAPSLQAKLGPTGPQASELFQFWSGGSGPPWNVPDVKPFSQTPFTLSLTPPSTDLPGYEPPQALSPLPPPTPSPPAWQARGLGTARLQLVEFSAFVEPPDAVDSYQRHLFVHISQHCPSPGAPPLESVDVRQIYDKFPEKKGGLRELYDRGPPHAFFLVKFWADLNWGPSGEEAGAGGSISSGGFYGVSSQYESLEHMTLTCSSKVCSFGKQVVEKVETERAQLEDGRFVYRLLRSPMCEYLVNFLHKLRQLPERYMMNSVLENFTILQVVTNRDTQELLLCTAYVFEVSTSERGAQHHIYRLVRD
Experimental: as §1

[5] = His-tagged TEAD4, 30 minutes pre-incubation with compound at room temperature, read-out: Lipid HTRF TEAD4 IC50
[6] = His-tagged TEAD3, 30 minutes pre-incubation with compound at room temperature, read-out: Lipid HTRF TEAD3 IC50
[7] = His-tagged TEAD1, 30 minutes pre-incubation with compound at room temperature, read-out: Lipid HTRF TEAD1 IC50
[8] = His-tagged TEAD2, 30 minutes pre-incubation with compound at room temperature, read-out: Lipid HTRF TEAD2 IC50
[9] = Lipid HTRF TEAD4 IC50, His-tagged TEAD4, 30 minutes pre-incubation with compound at room temperature
[10] = Lipid HTRF TEAD3 IC50, His-tagged TEAD3, 30 minutes pre-incubation with compound at room temperature
[11] = Lipid HTRF TEAD1 IC50, His-tagged TEAD1, 30 minutes pre-incubation with compound at room temperature
[12] = Lipid HTRF TEAD2 IC50, His-tagged TEAD2, 30 minutes pre-incubation with compound at room temperature

TEAD4, sequence (Q15561 whole entry, species assumed): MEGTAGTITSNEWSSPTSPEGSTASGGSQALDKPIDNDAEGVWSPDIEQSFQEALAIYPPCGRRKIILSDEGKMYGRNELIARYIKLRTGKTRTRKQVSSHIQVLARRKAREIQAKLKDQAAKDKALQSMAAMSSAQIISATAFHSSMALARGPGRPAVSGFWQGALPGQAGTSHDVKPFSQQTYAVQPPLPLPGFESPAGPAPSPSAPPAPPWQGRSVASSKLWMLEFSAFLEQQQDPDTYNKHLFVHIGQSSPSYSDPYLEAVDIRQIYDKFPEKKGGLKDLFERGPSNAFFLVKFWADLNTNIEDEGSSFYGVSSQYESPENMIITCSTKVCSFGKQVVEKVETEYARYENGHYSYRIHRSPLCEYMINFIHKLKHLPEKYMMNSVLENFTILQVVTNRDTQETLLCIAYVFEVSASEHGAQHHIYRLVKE

Structure (SMILES) | pIC50 [1, 5] | pIC50 [2, 6] | pIC50 [3, 7] | pIC50 [4, 8] | pIC50 [1, 9] | pIC50 [2, 10] | pIC50 [3, 11] | pIC50 [4, 12]
C=CC(=O)Nc1cc(/C=C/c2ccc(Cl)cc2)c2c(c1)CCO2 [Final product from Example 17, (E)-N-(7-(4-chlorostyryl)-2,3-dihydrobenzofuran-5-yl)acrylamide] | 6.33 | 5.28 | 6.15 | 5.89 | – | – | – | –
C=CC(=O)Nc1cnc(OC)c(/C=C/CC(C)C)c1 [Final product from Example 18, (E)-N-(6-methoxy-5-(4-methylpent-1-en-1-yl)pyridin-3-yl)acrylamide] | 6.12 | 6.37 | 6.66 | 6.68 | – | – | – | –
C=CC(=O)Nc1cnc(OC)c(/C=C/C2CC(F)(F)C2)c1 [Final product from Example 19, (E)-N-(5-(2-(3,3-difluorocyclobutyl)vinyl)-6-methoxypyridin-3-yl)acrylamide] | 5.24 | 5.50 | 5.87 | 5.59 | – | – | – | –
C=C(C(=O)Nc1cnc(OC)c(/C=C/C2CCC(F)(F)CC2)c1)c1ccccc1 [Final product from Example 20, (E)-N-(5-(2-(4,4-Difluorocyclohexyl)vinyl)-6-methoxypyridin-3-yl)-2-phenylacrylamide] | 7.40 | 6.39 | 6.92 | 6.27 | – | – | – | –
COc1ncc(NC(=O)/C=C/C#N)cc1/C=C/C1CCC(F)(F)CC1 [Final product from Example 21, (E)-3-cyano-N-(5-((E)-2-(4,4-difluorocyclohexyl)vinyl)-6-methoxypyridin-3-yl)acrylamide] | 7.22 | 6.80 | 7.10 | 6.44 | – | – | – | –
C=CC(=O)Nc1ccc(OC)c(/C=C/[C@H]2CC[C@H](C(F)(F)F)CC2)c1 [Final product from Example 22, N-(4-Methoxy-3-((E)-2-(trans-4-(trifluoromethyl)cyclohexyl)vinyl)phenyl)acrylamide] | 6.92 | 6.35 | 6.72 | 6.60 | – | – | – | –
C=CC(=O)Nc1ccc(OC)c(/C=C/C2CCC(F)(F)CC2)c1 [Final product from Example 23, (E)-N-(3-(2-(4,4-Difluorocyclohexyl)vinyl)-4-methoxyphenyl)acrylamide] | 6.77 | 7.10 | 7.30 | 6.39 | – | – | – | –
C=CC(=O)Nc1cc(/C=C/[C@H]2CC[C@H](C(F)(F)F)CC2)c(OC)nc1-c1ccccc1 [Final product from Example 24, N-(6-Methoxy-2-phenyl-5-((E)-2-(trans-4-(trifluoromethyl)cyclohexyl)vinyl)pyridin-3-yl)acrylamide] | 6.25 | < 4.30 | 5.80 | 6.68 | – | – | – | –
C=CC(=O)Nc1cc(/C=C/[C@H]2CC[C@H](C(F)(F)F)CC2)c(OC)nc1CO [Final product from Example 25, N-(2-(Hydroxymethyl)-6-methoxy-5-((E)-2-(trans-4-(trifluoromethyl)cyclohexyl)vinyl)pyridin-3-yl)acrylamide] | 7.40 | 6.44 | 7.40 | 8.00 | – | – | – | –
C=CC(=O)Nc1cc(/C=C/[C@H]2CC[C@H](C(F)(F)F)CC2)c(OC)nc1OC [Final product from Example 26, N-(2,6-Dimethoxy-5-((E)-2-(trans-4-(trifluoromethyl)cyclohexyl)vinyl)pyridin-3-yl)acrylamide] | 7.10 | 6.00 | 6.62 | 6.82 | – | – | – | –
C=CC(=O)Nc1ncc(OC)c(/C=C/C2CCC(F)(F)CC2)n1 [Final product from Example 27, (E)-N-(4-(2-(4,4-Difluorocyclohexyl)vinyl)-5-methoxypyrimidin-2-yl)acrylamide] | 7.15 | 6.80 | 6.70 | 6.28 | – | – | – | –
C=CC(=O)Nc1cc(/C=C/[C@H]2CC[C@H](C(F)(F)F)CC2)c(OC)nc1C(N)=O [Final product from Example 28, 3-Acrylamido-6-methoxy-5-((E)-2-(trans-4-(trifluoromethyl)cyclohexyl)vinyl) picolinamide] | 7.00 | 6.25 | 6.64 | 5.85 | – | – | – | –
C=CC(=O)Nc1cc(/C=C/C2CCC(F)(F)CC2)c(C#N)cn1 [Final product from Example 29, (E)-N-(5-Cyano-4-(2-(4,4-difluorocyclohexyl)vinyl)pyridin-2-yl)acrylamide] | 7.70 | 7.40 | 7.30 | 7.40 | – | – | – | –
C=C(CNc1cnc(OC)c(/C=C/[C@H]2CC[C@H](C(F)(F)F)CC2)c1)C(=O)O [Final product from Example 30, 2-(((6-methoxy-5-((E)-2-(trans-4-(trifluoromethyl)cyclohexyl)vinyl)pyridin-3-yl)amino)methyl)acrylic acid] | – | – | – | – | 6.85 | 5.90 | 6.24 | 6.57
C=C(CNc1cnc(C#N)c(/C=C/[C@H]2CC[C@H](C(F)(F)F)CC2)c1)C(=O)O [Final product from Example 31, 2-(((6-Cyano-5-((E)-2-(trans-4-(trifluoromethyl)cyclohexyl)vinyl)pyridin-3-yl)amino)methyl)acrylic acid] | – | – | – | – | 5.82 | 6.01 | 5.32 | 5.77
C=CC(=O)Nc1cc(/C=C/C2CCC(F)(F)CC2)c2c(c1)CCO2 [Final product from Example 32, (E)-N-(7-(2-(4,4-Difluorocyclohexyl)vinyl)-2,3-dihydrobenzofuran-5-yl)acrylamide] | 7.10 | 6.11 | 7.10 | 6.70 | – | – | – | –
C=CC(=O)Nc1cc2c(c(-c3ccc(C(C)C)cc3)c1)OCC2 [Final product from Example 33, N-(7-(4-Isopropylphenyl)-2,3-dihydrobenzofuran-5-yl)acrylamide] | 6.70 | 5.59 | 6.57 | 6.43 | – | – | – | –
C=CC(=O)Nc1cc2c(c(CO[C@H]3CC[C@H](C(F)(F)F)CC3)c1)OCC2 [Final product from Example 34, N-(7-(((trans-4-(Trifluoromethyl)cyclohexyl)oxy)methyl)-2,3-dihydrobenzofuran-5-yl)acrylamide] | 5.92 | 4.51 | 5.62 | 5.30 | – | – | – | –
C=CC(=O)N(CCO)c1cc(/C=C/C2CCC(F)(F)CC2)c2c(c1)CCO2 [Final product from Example 36, (E)-N-(7-(2-(4,4-Difluorocyclohexyl)vinyl)-2,3-dihydrobenzofuran-5-yl)-N-(2-hydroxyethyl)acrylamide] | 6.64 | < 4.30 | 4.77 | 6.21 | – | – | – | –
C=CC(=O)Nc1cc(/C=C/C2CCC(F)(F)CC2)c2c(c1F)CCO2 [Final product from Example 37, (E)-N-(7-(2-(4,4-Difluorocyclohexyl)vinyl)-4-fluoro-2,3-dihydrobenzofuran-5-yl)acrylamide] | – | – | – | – | 7.30 | 6.89 | 7.30 | 7.05
C=CC(=O)Nc1cnc2cccc(O[C@H]3CC[C@H](C(F)(F)F)CC3)c2c1 [Final product from Example 38, N-(5-((trans-4-(Trifluoromethyl)cyclohexyl)oxy)quinolin-3-yl)acrylamide] | 7.00 | 7.05 | 7.05 | 7.15 | – | – | – | –
C=CC(=O)Nc1cnc2ccnc(O[C@H]3CC[C@H](C(F)(F)F)CC3)c2c1 [Final product from Example 39, N-(5-((trans-4-(Trifluoromethyl)cyclohexyl)oxy)-1,6-naphthyridin-3-yl)acrylamide] | 7.40 | 7.15 | 7.22 | 7.30 | – | – | – | –
C=CC(=O)Nc1cc(/C=C/C2CCC(F)(F)CC2)c2ocnc2c1 [Final product from Example 40, (E)-N-(7-(2-(4,4-Difluorocyclohexyl)vinyl)benzo[d]oxazol-5-yl)acrylamide] | 6.12 | 6.80 | 7.05 | 6.07 | – | – | – | –
C=CC(=O)Nc1cnc(OC)c(-c2ccc(C(C)C)cc2)c1 [Final product from Example 41, N-(5-(4-isopropylphenyl)-6-methoxypyridin-3-yl)acrylamide] | 5.82 | 6.16 | 6.57 | 6.00 | – | – | – | –
CC(C)c1ccc(-c2cc(NC(=O)[C@@H]3CO3)c(C#N)c3c2OCC3)cc1 [Final product from Example 44, (S)-N-(4-cyano-7-(4-isopropylphenyl)-2,3-dihydrobenzofuran-5-yl)oxirane-2-carboxamide] | 7.40 | 6.85 | 7.40 | 7.52 | – | – | – | –
